# Laboratory results reported in BindingDB's records for PubMed 35063633 (Kumamoto University, 2022).
# Assays:
# [1] = Inhibition of human constitutive proteasome subunit beta type-2 in human erythrocytes using fluorogenic substrate by […]
# [2] = Inhibition of human constitutive proteasome subunit beta type-1 in human erythrocytes using fluorogenic substrate by […]
Structure (SMILES),IC50 [1] [µM],IC50 [2] [µM]
CCC(C)/C=C(\C)c1cc2c(cn1)C(=O)C1=C(N)C(=O)C(OC)=CC1=C2 (stereo unspecified),42,17
CCC(C)/C=C(\C)c1cc2c(cn1)C(=O)c1c(cc(OC)c(O)c1O)C2=O (stereo unspecified),> 50,> 50
CCC(C)/C=C(\C)C1=Cc2cc3c(c(O)c2CO1)C(=O)C(O)(CC(C)=O)C(OC)=C3 (stereo unspecified),> 50,19
